Earlier results on one substance are cited in patent US4280953A, “Glycosylated analogs of somatostatin” (The Salk Institute for Biological Studies, priority 1979, dated 1981).

Non-standard residues stand in square brackets, D forms with d.

The test system of the data set is secretion of insulin, glucogon pancreatic polypeptide and gastrin. To be noted: human subjects, subcutaneous administration.

Consider “H-CFF[dW]KTFC-OH (cysteine pairing not given here)”, for which the “inhibitory activity on the secretion of insulin, glucogon pancreatic polypeptide and gastrin” value is listed as “prolonged inhibitory activity”.
